# Experiments:
# [1] = system: methane emissions from sheep; assay: Example 1: in vivo study on sheep methane emissions (respiration chambers, once-daily drench); details: once-daily drenching, 121.3 mg/day, average of 3 sheep
# Experimental: The trial for testing the effects of Compound 19 on methane emissions from sheep over a 96 hour period in methane measurement chambers was approved by the Grasslands Animal Ethics Committee, and the use of the compounds in animals by the New Zealand Food Safety Authority, as required under ACVM legislation. Three sheep were used for each Compound 19 treatment group. The animals received a general-purpose diet (GP) at 1.5× maintenance energy requirements throughout the trials consisting of 500 g hay, 100 g soy bean meal, 290 g barley, 100 g molasses and 10 g mineral mix. During the time in the respiration chambers the animals had free access to water, with the feed offered twice a day at approximately 9:00 and 16:00 h in equal amounts. Feed refusals were weighed.
# The animals were adapted to GP diet for 14 days prior to entering the methane measurement chambers. Rumen contents were sampled by stomach tubing before methane emissions were measured in the respiration chambers and the day after being released from the chambers to allow for the future examination of any effects on volatile fatty acids (VFAs). Rumen samples from stomach tubing were immediately subsampled for short chain fatty acid (SCFA) analysis (1.8 ml). The samples were centrifuged (20,000 g, 10 min, 4° C.). […] SCFA were analysed by a HP 6890 gas chromatograph (Attwood et al., 1998).
# After the 14-day acclimatisation period, methane emissions were measured in open circuit respiration chambers as described in Chapter 1 of the technical manual on respiration chamber design (http://www.globalresearchalliance.org/wp-content/uploads/2012/03/GRA-MAN-Facility-BestPract-2012-ch13.pdf). Dry matter intake (DMI, kg/d) was recorded during methane measurements from the weight difference of feed offered and refused. […]
# Methane gas outputs for the 96-hour period (first 24 hours for background measurements (Period 1), followed by three days of dosing) in open circuit respiration chambers were determined and are summarised in Table 1.
# female Swiss mice = assay: Toxicity testing in mice according to OECD 423; assay type: in vivo; details: 300 mg/kg, single dose by oral gavage in corn oil, observed 14 days
# Experimental: The potential toxicology of Compound 19 was tested according to OECD 423. Mice testing used two groups with three mice (female Swiss mice, non-pregnant), all at approximately 8-9 weeks of age. On the day of testing, food was withdrawn 1-2 hours prior to dosing. Following fasting, the animals were weighed and the test substances administered. Access to food was resumed 1-2 hours after administration of the compounds. The compounds were administered in a single dose by oral gavage in corn oil (maximum of 0.3 ml per dose) at the selected dose and the time recorded. The mice were observed individually after dosing at least once during the first 30 minutes, periodically over the first 24 hours, with special attention given to the first 4 hours, and then daily thereafter for a total of 14 days. The mice were weighed every seven days (0, 7 and 14 days). All observations were systematically recorded for each individual animal. These observations included (if present): tremors, convulsions, salivation, diarrhoea, lethargy, sleep, coma, and changes in fur, skin, eyes, mucus membranes, respiration, motor activity and behaviour.
# [2] = system: methane production in rumen fluid; assay: Rumen in vitro (RIV) assay, methane production from rumen fluid incubations; assay type: cell-based, cattle; details: Bos taurus, read-out: RIV % methane reduction +/− SD
# In short: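 Rumen fluid from two fistulated cattle diluted 12 ml in 48 ml buffer with ryegrass substrate, incubated in sealed bottles at 39° C for 24-48 h in duplicate. Inhibitors added in DMF (stocks 1000-fold above highest assay level); total gas, methane and H2 measured automatically; 30 μM BES positive control, no-inhibitor negative control.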
compound,measurement,setting,value
"O=C(O)CCC(=O)N1N=C(c2ccc(-c3ccc(Cl)cc3)cc2)CC1c1ccc2nccnc2c1 (stereo not shown) [Compound 19, 4-(3-(4′-Chloro-[1,1′-biphenyl]-4-yl)-5-(quinoxalin-6-yl)-4,5-dihydro-1H-pyrazol-1-yl)-4-oxobutanoic acid]",CH4 Inhibition [%],[1]; Day 1,−6.5%
same,CH4 Inhibition [%],[1]; Day 2,8.9%
same,CH4 Inhibition [%],[1]; Day 3,11.4%
same,adverse effects (OECD 423),female Swiss mice,No adverse effects
same,inhibition at 2 µM,[2]; 2 μM,5.3 ± 0.6%
same,inhibition at 10 µM,[2]; 10 μM,83.7 ± 0.6%
same,inhibition at 50 µM,[2]; 50 μM,91.1 ± 0.3%
